Data: US6057153A, “Stabilized external guide sequences” (Yale University, priority 1997, dated 2000)
“Also recorded” adds a separate entry of the source.

Assays:
[1] = system: EGS/target RNA complex (SUB-156) with human RNase P; assay: Measurements of kcat and A50; assay type: biochemical, hepatitis B virus (HBV)
Description: Measurements of kcat, Km and A50 --Measurements of these kinetic parameters were carried out using conditions similar to those described above (e.g. identical cleavage buffers). For kcat measurements, aliquots were taken every 30-60 s for the first 5 min. The logarithm of the percentage of cleavage (Abs. Cleavage %) was plotted against time, and the data points were fitted using a linear least-squaresanalysis. The slope represents kcat values. For Km measurements,a fixed amount of RNase P (0.6 μl) was used, while substrate concentrations (i.e. EGS/target RNA complex) varied from 25 to 500 nM. Several EGS/target RNA ratios were assayed including 1:1, 5:1 and 10:1. Attempts were made to obtain Km and Vmax values from linear Lineweaver-Burk or Eadie-Hofstee plots. The scattered values could not be fit as a hyperbolic function. For A50 measurements, the ratio between EGS and target RNA was kept as 10:1. Various amounts of RNase P (0.3 to 3 μl) were used to conduct a 60-min cleavage reaction. Percentage of cleavage was plotted against [RNase P] in μl, and 50% cleavage values (A50) were determined using a non-linear, least-squares routine (Kaleidagraph, Synergy Software). The amount of RNase P required to reach A50 was then converted to enzyme unit. 1 unit of RNase P represents the amount of RNase P that catalyzes the conversion of 1 pmol of tRNA^Tyr precursor to cleavage products per minute per μl of the enzyme preparation. 1 unit of RNase P preparation used for this study equals 28.57 μl.

[2] = Nuclease resistance studies in 50% human serum; assay type: in vitro ADME; settings: 37° C., 24 h
Description: Nuclease resistance studies--100 μl of EGS oligonucleotides (5 μM), containing a trace of 5'-end-labeled oligomers, were incubated at 37° C. for different time periods (0-24 h) with 50% human serum (Sigma, S-7023). 20 μl aliquots were diluted to 100 μl with RNase-free water, phenol/chlorform extracted, and ethanol precipitated. The residue was resuspended in 10 μl of TE and 10 μl of 2× gel loading buffer containing 98% formamide, 10 mM1 EDTA and 0.1% bromophenol blue. The mixture was heated to 85° C. for 1 min, quickly cooled on ice and frozen at -20° C. prior to electrophoresis on 15% polyacrylamide/8 M urea gels. Gels were subsequently scanned on a Molecular Dynamics PHOSPHORIMAGER™, and the stability profile for each, oligomer was estimated from the ratio of the remaining intact materials versus all radio-labeled materials (intact oligomers plus degradation products). Stability studies of non radio-labeled EGS oligomers using capillary gel electrophoresis were also carried out according to the method of Leeds et al. (15).

Substrate RNA (SUB-156) = assay: RNase P-mediated cleavage assay, single turnover conditions; assay type: biochemical, hepatitis B virus (HBV); settings: 200 nM EGS, 20 nM substrate, saturating RNase P, 60 min
Description: RNase P-mediated cleavage assay--Human RNase P was purified from HeLa cells according to the published procedures (14). Substrate RNA (SUB-156, FIG. 24) was 5'-end labeled using T4 polynucleotide kinase and [γ-^32P]ATP. The labeling mixture was then heated to 85° C. for 1 min, diluted with RNase-free water, and purified by a MICROSPIN™ G-25 column (Pharmacia) according to the manufacturer's instructions. Cleavage reactions were conducted in a reaction buffer containing 50 mM Tris-HCl (pH 7.4), 25 mM KCl, 10 mM MgCl2 and 0.1 mM EDTA. EGS oligomers and ^32 p-5'-end-labeled RNA substrate were heated in the reaction buffer without MgCl2 to 85° C. for 1 min and then slowly cooled to room temperature. The cleavage reaction was initiated by adding 2 μl of 100 mM MgCl2 and 3 μl of RNase P (enzyme activity for this preparation: cleavage of 0.035 pmol of tRNA^Tyr precursor min^-1 μl^-1). The final reaction volume was 20 μl and the reaction was incubated at 37° C. for 60 min. […] For each sample, cleavage reactions were performed in duplicates and the average values were used. To ensure reproducibility, cleavage assays for each EGS were also repeated in two separate experiments. The all-RNA EGS-159 was used as the reference sample and its cleavage values were counted as 100%. Cleavage percentages of all other EGSs were normalized against EGS-159 (Rel. Cleavage %) except in FIG. 30 and FIG. 31 where absolute cleavage percentages (Abs. Cleavage %) were plotted.
For EGS-single turnover conditions, the final concentrations were 200 nM for EGS and 20(nM for the RNA substrate. For EGS-multiple turnover conditions, the final concentrations were 200 nM for the RNA substrate and 40 nM for EGS. When determination of the time-course was required, the reaction volume was increased to 40 μl. Aliquots of 5-8 μl were removed from the reaction mixture at different time points (e.g. 1, 5, 15, 30 and 60 min), quenched in formamide loading buffer, and loaded onto 15% polyacrylamide/8 M urea gels. Quantitation of the cleavage product and the remaining RNA substrate was achieved using a Molecular Dynamics PHOSPHORIMAGER™.
General considerations--To select lead nuclease-resistant oligonucleotide prototypes as external guide sequences among many possible modifications, a reliable yet rapid in vitro cleavage assay for routine screening was used. Human RNase P, a ribonucleoprotein, is composed of a 340-nt H1 RNA component and one or more proteins (for recent review, see Ref. 16). A 3-step screening strategy was devised: 1) All analogues once synthesized were tested by a fast qualitative cleavage assay under single turnover conditions with 10-fold excess of EGS over target RNA substrate for 60 min. […] This was the best cleavage condition used in this study. Any analogue with a reasonable activity (e.g. more than 5% cleavage) would not be missed, under these circumstances, due to the high detection sensitivity provided by PHOSPHORIMAGER™. 2) Promising analogues were then assayed for stability in 50% human serum.

[3] = Fetal Calf Serum Stability Assay; assay type: in vitro ADME; settings: 10% heat-inactivated fetal calf serum, EGS about 5 μM
Description: Fetal Calf Serum Stability Assay: The nuclease resistance of modified EGS molecules were tested in a Fetal Calf Serum (FCS) Assay. It was reported by Shaw et al., Nucleic Acids Res. 19:747-750 (1991), that 10% FCS, when heated inactivated, mimics rather closely the human serum. The assay conditions were very similar to that previously described by Hoke et al., Nucleic Acids Res. 19:5743-5748 (1991). Briefly, an EGS analog to be tested was 5'-end labeled with T4 polynucleotide kinase and [γ-^35 S] ATP (this procedure can generate radiolabeled oligonucleotides which are resistant against dephosphorylation). The labeled EGS was then purified by phenol/chloroform extraction, followed by a Sephadex G-25 spin-column filtration. The purified EGS was mixed with cold EGS and 10% heat-inactivated fetal calf serum (FCS) so that the final concentration of EGS was about 5 μM. EGS analogues were treated over a period of 24 hours. Aliquots were withdrawn from the reaction mixture at different time points, mixed with 2× loading dye, heat inactivated at 90° C. for 3 min, then stored at -20° C. The results were analyzed on 12% polyacrylamide/7 M urea gels.

[4] = system: short substrate (SEQ ID NO. 1) derived from the full-length pre-genomic HBV RNA; assay: RNAse P cleavage assay, short substrate; assay type: biochemical; settings: for efficiency of RNase P-mediated target cleavage relative to the wild-type EGS: short substrate, EGS 200 nM, 37° C., 1 hour
Description: RNAse P Cleavage Assays: Cleavage reactions were carried out generally according to the procedure described by Yuan et al., Proc. Natl. Acad. Sci., USA, 89:8006-8010, (1992), which is hereby incorporated by reference. Briefly, short substrate reactions were made up to a total volume of 31μ in 50 mM Tris-HCl pH 7.4, 10 mM MgCl2, 25 mM KCl, 0.1 mM EDTA, […] at 37° C. for 1 hour. After incubation, the reaction solution was mixed with loading buffer (98% formamide, 10 mM EDTA, 0.025% bromophenol blue). The cleaved substrate was separated from the uncleaved by electrophoresis on a 15% acrylamide gel containing 7 M urea. The bands were quantified on a Molecular Dynamics PHOSPHORIMAGER™.
The bands corresponding to the precursor RNA substrate and the resulting two cleavage products were counted from the dried gel using a BETASCOPE™ gel analyzer (Betagen).
RNAse P was purified by DEAE SEPHAROSE™ chromatography and glycerol density gradient centrifugation essentially as described by Bartkiewicz et al., Genes Dev. 3:488-499 (1989), which is hereby incorporated by reference.
The percentage of precursor RNA substrate remaining in either assay was plotted as function of the EGS concentration and the catalytic efficiency expressed as kcat /Km (where kcat is the rate constant of cleavage and Km is the Michaelis constant), the second order rate constant for the reaction of free EGS and substrate. Following the methods of Heidenreich and Eckstein (J. Biol. Chem., 267:1904-1909 (1992), the efficiency of the cleavage reaction, kcat /Km), was determined using the formula
The EGS constructs described in Example 2 were assayed using the RNAse P cleavage assays described in Example 1 to determine the efficiency of the cleavage reaction. FIG. 1 depicts the model system using a short substrate which was used to evaluate the ability of modified EGS molecules in inducing RNase P-mediated target cleavage. The sequence of the short substrate (SEQ ID NO. 1) was derived from the full-length pre-genomic HBV RNA.

2.1 kb HBV RNA = assay: RNAse P cleavage of large target RNA; assay type: biochemical; settings: 250 nM EGS, 30 minutes at 37° C.
Description: To test cleavage with a longer target RNA molecules, different reaction conditions were used. Reactions in a total volume of 10 μl contained 40 mM Tris-HCl (pH 7.4), 10 mM MgCl2, 1 mM spermidine 10 mM dithiothreitol, 0.05 μg/μl nuclease-free bovine serum albumin, 0.01% (v/v) Triton-X100™, 0.8 Units/μl RNASIN, 0.2 mM ATP, 0.2 mM GTP, 0.2 mM UTP, 0.2 mM CTP, 0.1 μCi/μl [a^32 P] CTP, 2 mM m^7 G(5')pppG, 0.06 μg/μl yeast RNA, 25 mM KCl, 3 Units T7 RNA polymerase, 250 nM EGS, 1 μl of human RNAse P and 3 ng/μl linearized plasmid. Reactions were initiated by the addition of linearized plasmid and incubated for 30 minutes at 37° C. Reactions were terminated by the addition of 10 μl of 80% formaemide, 10 mM EDTA, 0.1% bromphenol blue. After heating for 2 minutes at 90° C., samples were electrophoresed for 2 hours at 48 watts on a 5% denaturing polyacrylamide gel. After vacuum drying for 1 hour at 60° C., the gel was analyzed by phosphoimaging.
Cleavage of Large Target RNA: Plasmid pAYW2.1, containing the sequence that encodes the 2.1 kb RNA of the AYW strain of HBV, was linearized by digestion with Not I, and then transcribed by T7 RNA polymerase in the presence of [α^32 P]CTP. Labeled transcripts were incubated for 30 minutes at 37° C. with RNase P in the presence of various EGS molecules. Reaction products were subjected to denaturing polyacrylamide gel electrophoresis, and analyzed by phosphoimaging. EGS-mediated cleavage at the targeted site of the 2.1 kb transcript produces cleavage products that are approximately 1.7 and 0.4 kb in length.

EGS-398: lead prototype, U54 replaced with 2'-deoxyuridine, SEQ ID NO. 44 (guide AGAUGAUAGAAGGUUAGAAUCCUUCACGCCGC; 2'-deoxyuridine at tRNA position 54, rest of chemistry not given here)
A50 (amount of RNase P required to achieve 50% cleavage) ([1]; 60 min, EGS in 10-fold excess relative to the RNA target): 0.061 unit
kcat ([1]; single turnover, first 5 min): indistinguishable from that of the all-RNA control
degradation in 50% human serum [2]: no degradation products were detected
RNase P-mediated cleavage activity compared to the all-RNA control (Substrate RNA (SUB-156)): promising

INNO-139: SEQ ID NO. 3, variable loop deleted, 2'-O-methyl recognition sequences and T stem (CGAUGAAGGUUCGAAUCCUUCCCAGGAC; 2'-O-methyl modifications, chemistry not fully specified)
half-life in 10% FCS [3]: 2 h
turnover of EGS-mediated cleavage ([4]; EGS 20 nM, target 400 nM (20 fold excess)): do not significantly affects turnover
efficiency of RNase P-mediated target cleavage relative to the wild-type EGS [4]: much of the lost activity can be restored

INNO-140: all-RNA EGS without variable loop, SEQ ID NO. 3, 28 nucleotides (CGAUGAAGGUUCGAAUCCUUCCCAGGAC; guide RNA; RNA, backbone not given here)
half-life in 10% FCS [3]: less than 10 minutes

INNO-155: SEQ ID NO. 3, 2'-O-methyl, phosphorothioate T loop, 2'-O-methyl phosphorothioate end caps (CGAUGAAGGUUCGAAUCCUUCCCAGGAC; 2'-O-methyl, phosphorothioate T loop and end caps, positions not given here)
RNase P-mediated cleavage of 2.1 kb HBV RNA (2.1 kb HBV RNA): capable of inducing RNase P-mediated cleavage; also recorded: partially cleaved
half-life in 10% FCS [3]: more than 18 hours
efficiency of RNase P-mediated target cleavage relative to the wild-type EGS [4]: capable of inducing an efficient target cleavage
